# In publication PMC9084902, “Low-Molecular Weight Protamine Overcomes Chondroitin Sulfate Inhibition of Neural Regeneration” (Frontiers in Cell and Developmental Biology, 2022):
# “Also recorded” adds a separate entry of the source.
# Legend:
# [1] = cited from earlier work
# Description: We therefore tested protamine fragments that might be nontoxic but would still retain the ability to overcome the CSPG inhibition. […] This fragment is found in the literature as the low-molecular weight protamine (LMWP) with the capability to penetrate through the cell membranes and to carry drug cargoes to tissues including ...
# [2] = test system: mouse cervical hemisection model; assay: cylinder test, C5 hemisection, ICV delivery; assay type: in vivo, C57BL6/NHsd mouse; details: n = 5–10
# Procedure: (§1) The mouse was placed into the glass cylinder of 13 cm in diameter and 15 cm high. A mirror was positioned at the angle behind the cylinder for better observation. The mouse was videotaped for the first 20 exploratory vertical rearings or for 5 min. The number of rearings in which the mouse used the right (impaired), the left or both limbs for support against the wall was measured. Paw preference was calculated as the ratio of total number of left limb use (left + both) to total number of right (impaired) limb use (right + both). A trial with less than 5 rearings within 5 min was excluded from the analysis.
# cortical neurons [3] = assay: neurite outgrowth on aggrecan substrate, cortical neurons; assay type: cell-based, Wistar rat
# Procedure: (§2) The cortex or hippocampus were obtained from 17 days-old Wistar rat embryos and transferred to ice-cold preparation solution. Neurons were further isolated exactly as described earlier in Sahu’s publication ([Sahu et al., 2019]). Primary rat cortical or hippocampal neurons (E17 Wistar rats) were cultured in 96-well plates at the density of 20000 cells/well in Neurobasal medium supplemented with B27 serum substitute, penicillin, streptomycin and L-glutamate for 2 days in vitro (DIV). The plates were precoated with aggrecan (5 ug/ml, 150 µl/well). Protamine or protamine peptides were added to the culture medium at different concentrations. To analyze the effect of protamine or its fragment on neurite outgrowth, the plates were coated with 10 μg/ml of protamine or LMWP. For the experiment with chondroitinase, the aggrecan-coated plates were treated with chondroitinase ABC (Amsbio AMS. E1028, lot CF0029) for 4 h followed by 2 times washing with PBS before cell plating, and the cell culture imaging was carried out after 3 DIV incubation with 4 uM LMWP added to the medium. Neurite outgrowth was imaged with phase contrast microscopy (Olympus IX70 microscope and Retiga 2000R digital camera) using both x10 and x20 objectives. […] Neurite length was measured with ImageJ software and averaged from 2 to 3 independent experiments with 1–2 technical replicas in each independent experiment.
# cortical neurons [4] = assay: neurite outgrowth on chondroitinase ABC-treated aggrecan substrate, cortical neurons; assay type: cell-based, Wistar rat; details: ChABC 4 h, 4 µM LMWP in medium, 3 DIV; p = 0.012, unpaired t-test, n = 6; Figure 5B
# Procedure: as §2
# hippocampal neurons = assay: cell toxicity seen in neuronal morphology / neuronal cells in vitro; assay type: cell-based, Wistar rat; details: neuronal systems, Figures 2, 4
# Procedure: The cortex or hippocampus were obtained from 17 days-old Wistar rat embryos and transferred to ice-cold preparation solution. Neurons were further isolated exactly as described earlier in Sahu’s publication ([Sahu et al., 2019]). Primary rat cortical or hippocampal neurons (E17 Wistar rats) were cultured in 96-well plates at the density of 20000 cells/well in Neurobasal medium supplemented with B27 serum substitute, penicillin, streptomycin and L-glutamate for 2 days in vitro (DIV). The plates were precoated with aggrecan (5 ug/ml, 150 µl/well). Protamine or protamine peptides were added to the culture medium at different concentrations. To analyze the effect of protamine or its fragment on neurite outgrowth, the plates were coated with 10 μg/ml of protamine or LMWP. For the experiment with chondroitinase, the aggrecan-coated plates were treated with chondroitinase ABC (Amsbio AMS. E1028, lot CF0029) for 4 h followed by 2 times washing with PBS before cell plating, and the cell culture imaging was carried out after 3 DIV incubation with 4 uM LMWP added to the medium. Neurite outgrowth was imaged with phase contrast microscopy (Olympus IX70 microscope and Retiga 2000R digital camera) using both x10 and x20 objectives. Processes of neurons over the diameter of the neuronal soma were interpreted as neurites. Neurite length was measured with ImageJ software and averaged from 2 to 3 independent experiments with 1–2 technical replicas in each independent experiment.
# [5] = test system: mouse cervical hemicontusion model; assay: vertical screen (climbing) test, C5 hemicontusion, subcutaneous delivery; assay type: in vivo, C57BL6/NHsd mouse; details: 16 µg s.c. daily 49 days; n = 7–13
# Procedure: (§3) The effectiveness of systemically delivered LMWP in treatment of spinal cord trauma was tested in the cervical hemicontusion model (Figure 1B). Baseline behavior was assessed 1 week before the trauma surgery, and the results were used for balanced distribution of animals to the 3 experimental groups (“sham”, “trauma + PBS” and “trauma + LMWP”). Each housing cage contained animals from all three groups. Subcutaneous injections to the back area were started on the next day after the trauma and continued daily for 49 days. LMWP was injected subcutaneously at the 16 µg dose in 200 µl of sterile PBS. The groups “sham” and “trauma + PBS” got the same volume of PBS. Behavioral assessment was started 2 weeks after the trauma and finished at the week 12.
# The mouse was placed on the brink of a horizontal wire screen (25 × 22 cm, diameter of wires 2 mm spaced at 1 cm) faced to edge. Immediately after that the screen was turned vertically to place the mouse to the upside down position at the lower edge. The time that the animal needed to climb to the upper edge was measured during 1 min. If the animal was not able to climb up or fell down from the screen the maximum time 60 s was marked as the climbing time. The average parameter of three subsequent trials repeated with at least 1 min interval was used for data analysis.
# [6] = test system: NF200+ fibers in trauma hemisphere of spinal cord; assay: NF200 immunohistochemistry, C5 hemicontusion, subcutaneous delivery; assay type: in vivo, C57BL6/NHsd mouse; details: 16 µg s.c. daily 49 days
# Procedure: as §3
# The samples for immunohistochemistry (IHC) were taken from all animals tested in the hemicontusion study with subcutaneous 7 weeks treatment (Figure 1B) at the end of the experiment at 12 weeks (Figure 1B). The cervical spinal cord segments were sectioned into 40 microns thick transverse sections from tissue blocks (samples embedded into solid OCT compound by freezing with dry ice) by using microtome (Leica CM3050 S). Few spinal cord samples were excluded from the study due to technical problems in spinal cord dissection or sectioning procedures, and the total amount of 11 spinal cords of the “trauma + PBS” and 7 spinal cords of the “trauma + LMWP” group were analyzed. Every fourth section per animal was chosen for IHC neurofilament staining making the section interval […]. The sections were stained with primary antibodies against NF200 (ab8135, Abcam, 1:500) in blocking buffer (1xTBS with 0.5% TX-100 and with 3%BSA) and AlexaFluor 594 (REF A11037, Invitrogen) secondary antibodies at the dilution 1:400 in TBS-T (1xTBS with 0.5% TX-100) on microscope slides. The washings prior to and between the stainings were done with TBS-T, whereas the final wash before mounting with Vectastain mounting medium with DAPI, was done by using reverse osmose water. […]
# [7] = test system: mouse cervical hemicontusion model; assay: cylinder test, C5 hemicontusion, subcutaneous delivery; assay type: in vivo, C57BL6/NHsd mouse; details: 16 µg s.c. daily 49 days; n = 7–13; difference not statistically significant
# Procedure: as §3, §1
# [8] = ICV LMWP 4 µl of 1 mg/ml daily, 6 days from day 3
sequence,measurement,setting,value
"VSRRRRRRGGRRRR [LMWP, low-molecular weight protamine]",blood-brain barrier passage,[1],reported to pass the blood-brain barrier
same,cell membrane penetration and cargo delivery to tissues including the brain,[1],capability to penetrate through the cell membranes and to carry drug cargoes to tissues including the brain
same,toxicity relative to protamine,"[1]; ref Byun et al., 2000, He et al., 2014, Edwards et al., 2020",non-toxic substitute of protamine
same,front paw use asymmetry (injured versus non-injured side),[2]; [8],"reduction of front paw use asymmetry at the weeks 2, 4, 8 and 9 after the trauma; also recorded: less asymmetry in frontpaw use when the injured side was compared to the non-injured side"
same,ipsilateral paw use,[2]; [8],partially improved the ipsilateral paw use
same,ipsilateral paw use versus sham,"[2]; ICV LMWP, week 2 p = 0.4201, week 4 p = 0.2766, week 8 p = 0.1092, week 9 p = 0.1659, PBS group differed from sham at all weeks",not significantly different from the sham animals
same,stimulation of neurite outgrowth versus 0 μg/ml,"cortical neurons [3]; LMWP in medium at 1.75 µM (3.3 μg/ml), p = 0.0319, n = 6, Figure 5A",~6 times
same,stimulation of neurite outgrowth versus 0 μg/ml,"cortical neurons [3]; LMWP in medium at 3.5 µM (6.6 μg/ml), p < 0.0001, n = 6, Figure 5A",more than 20 times
same,effect of CS digestion of aggrecan by chondroitinase ABC on LMWP-induced neurite outgrowth,cortical neurons [4],significantly decreased the neurite outgrowth-promoting effect of LMWP; also recorded: abolished the activity of LMWP to enhance neurite outgrowth
same,toxicity for neuronal cells (summary),hippocampal neurons,little if any toxicity even at high concentrations
same,climbing test recovery versus PBS,[5],tendency for better recovery in the LMWP group compared to the PBS group
same,NF200+ signal area near trauma epicenter versus PBS,"[6]; 60 µm rostral, p = 0.0064, no similar trend in the sections around",significant difference of the NF200+ signal area in one section level localized almost in the middle of the trauma epicenter
same,area of NF200+ signal on trauma periphery versus PBS,"[6]; about ±400 µm from epicenter: 400 µm rostral p = 0.0021, −400 µm caudal p = 0.0346, Mann-Whitney, n = 7–11",increased the area of the NF200+ signal in the section levels located on the trauma periphery
same,"NF200+ fibers (%) in trauma hemisphere, LMWP versus control group","[6]; week 12, n = 7–11",statistically significant group difference between the LMWP-treated mice and the control mice in NF200+ fibers (%)
same,front paw use asymmetry versus PBS,[7],tendency for better improvement of the LMWP group compared to the PBS group although the difference was not statistically significant
